Test results as given in patent US20250270648A1, “MOLECULAR SIGNATURE FOR ASSESSING THE RESPONSIVENESS OF CANCER TO MITOCHONDRIA-TARGETED ANTIOXIDANTS” (UNIVERSITÉ CATHOLIQUE DE LOUVAIN, priority 2021, published 2025).

Columns and labels:
[1] = tested on: 4T1 cells; experiment: Migration towards 0.5% serum, chemotaxis chamber; assay type: cell-based, mouse
Protocol: (§1) Previous to migration and invasion assays, cells were pretreated with the indicated amounts of drugs for 16 h, and left to recover for 6 h in full culture medium. Migration assays were performed in a NeuroProbe® standard 48-well chemotaxis chamber according to manufacturer's instructions. Briefly, the bottom chamber was filled with DMEM containing 0.5% serum as a chemo-attractant. Fifty thousand cells were seeded in the upper chamber in the same medium but without serum ±MitoQ where indicated, and allowed to migrate overnight through an 8-μm pore-size polycarbonate membrane. A similar stimulation protocol was used for invasion assays, with the difference of using Matrigel-coated transwells (Corning®). With MCF7 cells, membranes were previously incubated for 30 min with a solution of Vitronectin 10 μg/ml (Sigma-Aldrich®, #SRP3186). Migrated/invaded cells were fixed and stained with 100 μl of a 0.23% crystal violet solution (Sigma-Aldrich®, #C0775) for 10 min before counting on a SpectraMax™ i3 spectrophotometer equipped with a MiniMax imaging cytometer, using the SoftMax Pro software. Data were normalized to vehicle-treated cells (control).

[2] = tested on: MCF10A normal breast epithelial cells; experiment: Mitochondrial potential, JC-10; assay type: cell-based, human; conditions: MitoQ 100 nM, 48 h
Protocol: (§2) The mitochondrial potential (ΔΨ) was measured using JC-10 Mitochondrial Membrane Potential Assay Kit (Abcam®, #ab112134), according to manufacturer's recommendations. Briefly, MDA-MB-231 (10^4 cells/well), SkBr3 (10^4 cells/well), MDA-MB-436 (10^4 cells/well) or MCF10A (10^5 cells/well) cells were seeded in 96-well plates and treated for 48 h±MitoQ. Cells were then washed twice and incubated with JC-10 (1× solution) for 45 min. Fluorescence intensities were measured at 490/525 nm and […] using a SpectraMax i3 spectrophotometer equipped with a MiniMax imaging cytometer (Molecular Devices®).

[3] = tested on: MDA-MB-436 breast cancer cells; experiment: Mitochondrial potential, JC-10; assay type: cell-based, human; conditions: MitoQ 100 nM, 48 h
Protocol: as §2

[4] = tested on: MCF10A normal breast epithelial cells; experiment: Mitochondrial superoxide, EPR with MitoTEMPO-H ±PEG-SOD2; assay type: cell-based, human; conditions: MitoQ 100 nM, 48 h
Protocol: Mitochondrial superoxide levels were determined using electron paramagnetic resonance (EPR) with MitoTEMPO-H as a specific mitochondrial superoxide probe ±PEG-SOD2 to specifically assign signals to mitochondrial superoxide. EPR measurements were performed using a Bruker EMX-Plus spectrometer, operating in X-band (9.85 GHz) and equipped with a PremiumX ultra low noise microwave bridge and a SHQ high sensitivity resonator. Typical settings were: microwave power: 20 mW; attenuation: 10 dB; modulation frequency: 100 kHz; modulation amplitude: 0.1 mT; time constant: 20.48 ms; conversion time: 22.58 ms; sweep width: 0.15 mT. Briefly, MDA-MB-231, SkBr3, MCF10A or MDA-MB-436 cells were treated ±MitoQ for 48 h, harvested and resuspended in PBS at 2×10^6 cells/mL. The experimental mixture was prepared with cell suspension, 1 mM DTPA and 150 μM MitoTEMPO-H. It was then aspirated into a gas-permeable polytetrafluoroethylene (PTFE) tubing that was placed in a quartz tube opened at both ends. The tube was directly inserted inside the EPR cavity that was heated at 310° K with air during all experiments. […] Net superoxide production was calculated by subtracting the double integration values of the […] with PEG-SOD2 to the control value at timepoint 15 min.

[5] = tested on: 4T1 cells; experiment: Invasion, Matrigel-coated transwells; assay type: cell-based, mouse; conditions: 0.1 μg/mL DXR + 100 nM MitoQ
Protocol: as §1

[6] = tested on: MMTV-PyMT mice; experiment: Spontaneous metastatic breast cancer, FEC ±MitoQ; assay type: in vivo, mouse; conditions: 6 weeks
Description: Female FVB/N-Tg(MMTV-PyMT)634Mul/J (MMTV-PyMT) mice that express the polyomavirus middle T antigen spontaneously develop orthotropic multifocal breast adenocarcinomas that spontaneously disseminate metastases to the lungs during mouse lifetime. For spontaneous metastasis assays, female MMTV-PyMT mice (The Jackson Laboratory) were daily observed for signs of spontaneous primary tumors starting at 6 weeks of age. Once tumors became palpable, 4 additional weeks were waited to mimic a clinical time frame between first tumor signs and treatment initiation. Ten weeks-old mice with primary tumors of ˜0.8 cm in diameter received a single dose of FEC chemotherapy (100 mg/Kg 5-FU, 5 mg/Kg epirubicin, 100 mg/Kg cyclophosphamide), a clinically relevant neoadjuvant or adjuvant chemotherapeutic combination. Animals were then randomly assigned to a group receiving daily 18 mg/Kg MitoQ or an equal volume of vehicle by oral gavage. They were sacrificed at 16 weeks-old, and the lungs insufflated with Indian ink for metastasis quantification as described above. Primary tumors were collected, weighted, and processed for RT-qPCR.

[7] = tested on: MDA-MB-436 spheroids; experiment: Spheres / stem-like spheroids; assay type: cell-based, human; conditions: increasing doses of MitoQ, over 1 week
Protocol: 3D models were used to obtain an enriched population in stem cells. For that, 10^4 MDA-MB-231, SkBr3 or MDA-MB-436 cancer cells were grown in suspension using 10 cm dishes coated with Polyhema in stem-cell medium: DMEM/F-12 (Gibco®, cat #11320033) supplemented with 100 units/mL penicillin, 100 μg/mL streptomycin, 20 μL/mL B27 (Gibco®, cat #17504044), 20 ng/mL human recombinant epithelial growth factor (EGF) (Peprotech®, cat #AF-100-15), 10 ng/mL basic fibroblast growth factor (bFGF; Peprotech®, cat #100-18B) and 2.5 mg/mL insulin. When spheres reached around 100 μm in diameter, they were washed with PBS and dissociated with accutase (Stem Cell Technology®, cat #07920) in order to have single cells again. […] Images were captured on Axiovert™ 40 CFL microscope equipped with a MRC camera. At the end of the treatment, living cells were collected for RNA extraction.
Stem like-spheroids were prepared by seeding 5,000 MDA-MB-231, SkBr3 or MDA-MB-436 dissociated spheres/well in ultra-Low attachment 96-well plates (Corning®, cat #7007) in stem cell medium supplemented as described above. […] Spheroid growth was monitored using an Axio Observer live-cell phase contrast microscope (Zeiss®).

## COC1=C(OC)C(=O)C(CCCCCCCCCC[P+](c2ccccc2)(c2ccccc2)c2ccccc2)=C(C)C1=O [MitoQ]
[1]; 0.1 μg/mL DXR + 100 nM MitoQ
  DXR-stimulated cell migration: inhibited
[1]; indicated doses of cisplatin + 100 nM MitoQ
  breast cancer cell migration in the presence of cisplatin: repressed
[2]
  mitochondrial potential (Δψ): not affected
[3]
  AT (FIG. 14D, mitochondrial potential): repressed
[4]
  mitochondrial superoxide production: not affected
[5]
  DXR-stimulated cell invasion: inhibited
[6]; FEC + MitoQ 18 mg/kg daily oral vs FEC + vehicle
  number of surface lung metastases: significantly repressed
[6]; FEC + MitoQ 18 mg/kg daily oral vs FEC + vehicle, P=0.1395
  total primary tumor weight: not altered
[6]; FEC + MitoQ 18 mg/kg daily oral, all 15 FEC+ control mice had metastases
  mice metastasis-free: 4 of 21
[7]
  spheroid formation: dose-dependently retarded
